We go through three compounds from patent US20240238294A1, “ANTICANCER THERAPY” (Boehringer Ingelheim International GmbH, priority 2021, published 2024).

Assay [1] relates to H358 cells with KRAS G12C + Y96D. Particulars: 2D, monotherapy. An excerpt:
(§1) Briefly, each KRAS mutation was introduced using a Prime STAR Mutagenesis Basal Kit (Takara) with designed primers into the pBABE-puro-KRas construct (Addgene, Cambridge, MA, USA). Retroviral particles were generated by co-transfection of each pBABE-puro-KRAS construct and pVSV-G vector (Clontech, Fremont, CA, USA) into gp-IRES 293 cells with FuGENE6 transfection reagent (Roche Diagnostics, Basel, Switzerland). Viral particles were concentrated using a retrovirus concentration kit (Clontech). […] The transfected Ba/F3 cells or H358 cells were selected with 0.8-1.0 μg/mL or 2.0 μg/mL of puromycin, respectively. […]
(§2) In the two-dimensional (2D) growth inhibition assay, 5x10^3 cells were cultured in 96-well plates for 24 hours and treated with reagents at ten different concentrations for 72 hr. […] The amount of formazan dye, which reflects cell viability, was measured by reading the absorbance at 450 nm using a multiplate reader (Tecan, Mannedorf, Switzerland). […] IC50 values were determined by a nonlinear regression curve fit utilizing a variable slope model with normalized the response in GraphPad prism version 8 (GraphPad Software, San Diego, CA). […]

The subject of assay [2] is H358 cells with KRAS G12C + Y96S. Particulars: 2D, monotherapy.
Description: as §1, §2

For assay [3], the system named is H358 cells with KRAS G12C + Y96D. Particulars: 3D, monotherapy.
Description: (§3) Briefly, each KRAS mutation was introduced using a Prime STAR Mutagenesis Basal Kit (Takara) with designed primers into the pBABE-puro-KRas construct (Addgene, Cambridge, MA, USA). Retroviral particles were generated by co-transfection of each pBABE-puro-KRAS construct and pVSV-G vector (Clontech, Fremont, CA, USA) into gp-IRES 293 cells with FuGENE6 transfection reagent (Roche Diagnostics, Basel, Switzerland). Viral particles were concentrated using a retrovirus concentration kit (Clontech). Ba/F3 cells (3×103) or H358 cells (1×104) were transfected with each retrovirus and cultured at 37° C. for a few days. The transfected Ba/F3 cells or H358 cells were selected with 0.8-1.0 μg/mL or 2.0 μg/mL of puromycin, respectively. […]
as §2

Assay [4] relates to H358 cells with KRAS G12C + Y96S. Particulars: 3D, monotherapy.
Description: as §3, §2

Assay [5] deals with Ba/F3 cells harboring KRAS G12C. The assay can be described thus: growth inhibition assay, Ba/F3 cells with KRAS G12C. The format is cell-based, murine. Particulars: Mus musculus, BaF3; Table 3, Ba/F3 G12C, 72 hours.
Description: as §3, §2

Assay [6] deals with Ba/F3 cells harboring KRAS G12C + A59S (introduced). The assay can be described thus: growth inhibition assay, Ba/F3 cells with introduced KRAS G12C plus secondary mutation. The format is cell-based, murine. Particulars: Mus musculus, BaF3; Table 3, Ba/F3 G12C + A59S, 72 hours. An excerpt: (§4) Briefly, each KRAS mutation was introduced using a Prime STAR Mutagenesis Basal Kit (Takara) with designed primers into the pBABE-puro-KRas construct (Addgene, Cambridge, MA, USA). Retroviral particles were generated by co-transfection of each pBABE-puro-KRAS construct and pVSV-G vector (Clontech, Fremont, CA, USA) into gp-IRES 293 cells with FuGENE6 transfection reagent (Roche Diagnostics, Basel, Switzerland). Viral particles were concentrated using a retrovirus concentration kit (Clontech). Ba/F3 cells (3×103) or H358 cells (1×104) were transfected with each retrovirus and cultured at 37° C. for a few days. The transfected Ba/F3 cells or H358 cells were selected with 0.8-1.0 μg/mL or 2.0 μg/mL of puromycin, respectively. After puromycin selection, presence of each KRAS mutation was confirmed as follows; total RNA was extracted from cells using a mirVana miRNA Isolation Kit (Qiagen, Hilden, Germany), and cDNA was generated by reverse transcription using ReverTra Ace (TOYOBO, Osaka, Japan). The KRAS coding sequence was amplified by PCR. The KRAS nucleotide sequence was checked by Sanger sequencing using the 3130 or 3500XL Genetic Analyzer (Applied Biosystems, Waltham, MA).
(§5) In the two-dimensional (2D) growth inhibition assay, 5x10^3 cells were cultured in 96-well plates for 24 hours and treated with reagents at ten different concentrations for 72 hr. Cell viability assays were performed using Cell Counting Kit-8 (Dojindo Laboratories, Kumamoto, Japan). The amount of formazan dye, which reflects cell viability, was measured by reading the absorbance at 450 nm using a multiplate reader (Tecan, Mannedorf, Switzerland). In the 3D growth inhibition assay, 5×10^3 cells were embedded in growth factor-reduced Matrigel (Corning, New York, USA) and cultured in RPMI 1640 medium (Wako) with 10% FBS (Sigma-Aldrich) and P/S (Wako) in 96-well plates. After 72 hours of incubation, cells were treated with the indicated concentrations for 72 hours, and a cell viability assay was performed as described above. IC50 values were determined by a nonlinear regression curve fit utilizing a variable slope model with normalized the response in GraphPad prism version 8 (GraphPad Software, San Diego, CA).
(§6) The RI value was calculated with the following formula: IC50 of each reconstructed Ba/F3 cell/IC50 of parental Ba/F3 cells with KRAS G12C.
(§7) The results are shown as the mean values of three individual experiments. Error bars indicate the standard deviation (SD).

The subject of assay [7] is Ba/F3 cells harboring KRAS G12C + Y96D (introduced). The assay is described as above. In kind it is cell-based, murine. Particulars: Table 3, Ba/F3 G12C + Y96D.
Description: as §4, §5, §6, §7

Assay [8] relates to Ba/F3 cells harboring KRAS G12C + Y96S (introduced). The assay is described as above. The format is cell-based, murine. Particulars: Table 3, Ba/F3 G12C + Y96S.
Description: as §4, §5, §6, §7

Assay [9] relates to H358 cells harboring G12C plus Y96S. Particulars: 72 hours, FIG. 4.
Description: as §3, §2

For assay [10], the system named is H358 cells harboring G12C plus Y96D. Particulars: 72 hours, FIG. 4.
Description: as §3, §2

Like-named read-outs stand apart in the source and are kept apart here.

As for `COc1cc2nc(C)nc(N[C@H](C)c3cc(N)cc(C(F)(F)F)c3)c2cc1O[C@H]1CCOC1` [BI-3406], the “growth inhibition” value in assay [1], in assay [2], in assay [3] and in assay [4] was “modestly inhibited growth” each time.
In the case of `C[C@@H]1OCC2(CCN(c3cnc(Sc4ccnc(N)c4Cl)c(N)n3)CC2)[C@@H]1N` [TNO 155], the IC50 is 455 nM in assay [5]; 3050 nM in [6]; > 1000 nM in assay [7] (Mus musculus, BaF3, 72 h); 1090 nM in assay [7] (72 hours); > 1000 nM in [8] (Mus musculus, BaF3, 72 h); 1150 nM in assay [8] (72 hours).
Regarding `C=CC(=O)N1CCN(c2nc(=O)n(-c3c(C)ccnc3C(C)C)c3nc(-c4c(O)cccc4F)c(F)cc23)[C@@H](C)C1` [sotorasib], the “IC50 compared to parental H358 cells” value in assay [9] and in assay [10] was “approximately 30 times” in each case.

Usually IC50 stands for the midpoint of a concentration-inhibition curve.
